Source: patent US20030109523A1, “Bicyclic antagonists selective for the alphavbeta3 integrin” (Wyeth, priority 1999, published 2003)
Where a name gives a salt, the structure may show the parent alone. Blank lines part the entries; values can stand above or below the compound they belong to.

Legend:
αVβ3 integrin = molecular target: T1, αVβ3 integrin (Homo sapiens, UniProt P05106+P06756); assay: Osteopontin-αVβ3 Cell Attachment Test Procedure; type: cell-based; settings: for IC50: attachment of cells to osteopontin, read-out: (αVβ3) IC50 CELL ATTACHMENT
T1 construct: αVβ3-expressing cell lines are maintained by standard tissue culture techniques; endogenous in cells; host or cells: αVβ3-expressing cell lines
Protocol: Osteopontin-αVβ3 Cell Attachment Test Procedure
Measuring the effect of compounds on the RGD-dependent attachment of cells to osteopontin mediated by the αVβ3 integrin.
Following incubation the wells were aspirated and washed once with D-PBS; plates can either be used immediately or stored for up to 1 week at 4° C. Prior to assay, the wells were blocked with 1% bovine serum albumin (BSA) in cell suspension media for 1 hour at 37° C. Following the blocking period, wells were aspirated and washed once with D-PBS.
αVβ3-expressing cell lines are maintained by standard tissue culture techniques. […] The cells were pelleted by low-speed centrifugation and washed three times with 0.5 mg/mL trypsin inhibitor in D-PBS (Sigma). The final cell pellet was resuspended in cell suspension media at a concentration of 10^6 cells/mL.
Incubation: 100 μL of diluted test compound was added to osteopontin-coated wells (in triplicate) followed by 100 μL of cell suspension; background cell attachment was determined in uncoated wells. The plate was incubated at 25° C. in a humidified air atmosphere for 1.5 hours. Following the incubation period, the wells were gently aspirated and washed once with D-PBS.
Cell Number Detection: The number of cells attached was determined by an MTT dye conversion assay (Promega) according to the manufacturer's instructions. Briefly, MTT dye was diluted in cell suspension media (15:85) and 100 μL was added to each well. […] The assay plates were covered and incubated at 37° C. in a humidified air atmosphere overnight.
The individual well optical density was expressed as a percentage of the maximal attachment (% Max) wells minus background attachment, and reported as the mean ±standard deviation.

[1] = molecular target: T2, Vitronectin Receptor (αVβ3) (Homo sapiens, UniProt P05106+P06756); assay: Vitronectin Receptor (αVβ3) Binding Test Procedure; settings: for IC50: read-out: (αVβ3) IC50 RECEPTOR BINDING
T2 construct: expressed in transfected cells; host or cells: 512P5 cells (plasma membrane preparation)

osteoclasts = assay: Osteoclast Bone Pitting; type: cell-based, rat; settings: Rattus norvegicus, Osteoclast
Protocol: Osteoclast Bone Pitting The test procedure was conducted as described by R. J. Murrills and D. W. […] At this pH the adherent osteoclasts excavate an adequate number of resorption pits for assay purposes. Slices were fixed in 2.5% glutaraldehyde and osteoclasts counted following tartrate-resistant acid phosphatase staining. […] All cells were stripped from the slice by sonication on 0.25M NH4OH and the resorption pits formed by the osteoclasts during the experiment stained with toluidine blue. Resorption pits were quantified by manually counting. The experiments were conducted according to a block design with osteoclasts from each animal exposed to each treatment. Three replicate slices were used per treatment per animal, such that a total of 96 slices were examined for an experiment involving four animals and eight treatments (including control). Several parameters were recorded on a “per slice” basis: number of pits, number of osteoclasts, number of pits per osteoclast, number of fibroblast-like bone cells. SAS or JMP statistical software were used for statistical analysis. […] IC50s were calculated using dose-response curves.

αIIbβ3 integrin = molecular target: T3, αIIbβ3 integrin (Homo sapiens, UniProt P05106+P08514); assay: ADP-Induced Platelet Aggregation; type: cell-based; settings: Table VII; for remaining activity at 200 µM: percent of maximal aggregation; for IC50: ADP 20 uM, human platelets, read-out: Platelet Aggregation αIIbβ3 IC50
T3 construct: Human Platelets: Platelet-enriched plasma was obtained commercially from a donor pool; from tissue; host or cells: human platelet-rich plasma from a commercial donor pool
Protocol: Measurement of the Effect of Compounds on ADP-Induced Platelet Aggregation
Measuring the effect of compounds on ADP-induced platelet aggregation mediated by a fibrinogen-αIIbβ3 integrin interaction.
Human Platelets: Platelet-enriched plasma was obtained commercially from a donor pool. The plasma was tested prior to shipment and found to be negative for HIV, HCV and Hepatitis B. Platelet-rich plasma (PRP) was obtained by diluting plasma to an approximate final concentration of 3×10(6) platelets per mL in platelet poor plasma (PPP). PPP was the supernatant of a lowspeed centrifugation of plasma.
Adenosine diphosphate (ADP): ADP was obtained commercially and diluted to 1 mM (stock solution) in distilled, deionized water (ddH2O).
Incubation: PRP and PPP were prewarmed in a water bath at 37° C. […] PRP plus sample compound in a final volume of 500 uL was added to a pre-warmed cuvette in a ChronoLog aggregometer. A control containing PRP and 5 uL of vehicle was treated similarly to the test cuvette; final vehicle concentration was 1%. The two cuvettes were incubated with stirring (1000 rpm) at 37° C. for 5 minutes. Five hundred microliters of PPP was used as a reference (100% aggregation).
Aggregation: To begin the test, ADP was added yielding a final concentration of 20 uM to both samples (plus and minus sample compound). Light transmittance was monitored continuously and compared to the reference cuvette. After five minutes, the test was terminated and the slope and maximal amplitude of the resulting aggregation plot was calculated by the aggregometer.
The percent of maximal aggregation is the ratio of the maximal aggregations of the sample cuvette to the control multiplied by 100 (% Max) and reported as the mean+−standard deviation.

[2] = % of maximal attachment, read-out: (αVβ3) CELL ATTACHMENT, % @ concentration
[3] = % Max = percentage of the specific binding, read-out: (αVβ3) RECEPTOR BINDING, % @ concentration

T3 sequence (P08514 32-887 limits assumed): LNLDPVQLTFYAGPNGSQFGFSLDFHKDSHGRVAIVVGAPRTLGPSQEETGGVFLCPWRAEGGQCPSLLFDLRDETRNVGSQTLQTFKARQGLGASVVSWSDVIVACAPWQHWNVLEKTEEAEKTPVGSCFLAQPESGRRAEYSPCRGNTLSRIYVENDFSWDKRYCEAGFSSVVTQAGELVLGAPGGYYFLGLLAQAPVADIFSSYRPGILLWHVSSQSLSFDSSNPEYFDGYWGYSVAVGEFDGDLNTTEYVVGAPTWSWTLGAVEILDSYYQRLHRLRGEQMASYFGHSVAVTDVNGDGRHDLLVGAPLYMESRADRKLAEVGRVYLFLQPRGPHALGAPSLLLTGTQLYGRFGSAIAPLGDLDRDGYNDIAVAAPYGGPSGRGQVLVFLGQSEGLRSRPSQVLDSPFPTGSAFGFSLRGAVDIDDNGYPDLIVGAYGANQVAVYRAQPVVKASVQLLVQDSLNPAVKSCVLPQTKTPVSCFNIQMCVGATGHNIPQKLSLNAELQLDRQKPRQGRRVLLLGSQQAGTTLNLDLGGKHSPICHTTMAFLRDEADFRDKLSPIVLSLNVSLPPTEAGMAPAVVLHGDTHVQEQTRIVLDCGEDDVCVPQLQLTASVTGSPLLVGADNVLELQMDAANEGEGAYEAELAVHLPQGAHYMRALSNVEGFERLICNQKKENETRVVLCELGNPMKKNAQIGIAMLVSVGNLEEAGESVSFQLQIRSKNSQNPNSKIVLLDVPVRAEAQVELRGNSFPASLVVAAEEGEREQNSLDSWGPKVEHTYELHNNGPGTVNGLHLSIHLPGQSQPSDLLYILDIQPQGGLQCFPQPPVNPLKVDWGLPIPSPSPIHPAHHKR
T3 sequence (P08514 891-1039 partner limits assumed): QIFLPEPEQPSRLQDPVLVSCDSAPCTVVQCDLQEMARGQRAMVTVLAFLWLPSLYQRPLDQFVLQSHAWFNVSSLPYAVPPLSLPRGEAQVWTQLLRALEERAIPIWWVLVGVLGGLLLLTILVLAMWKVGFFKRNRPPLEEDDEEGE
T3 sequence (P05106 27-788): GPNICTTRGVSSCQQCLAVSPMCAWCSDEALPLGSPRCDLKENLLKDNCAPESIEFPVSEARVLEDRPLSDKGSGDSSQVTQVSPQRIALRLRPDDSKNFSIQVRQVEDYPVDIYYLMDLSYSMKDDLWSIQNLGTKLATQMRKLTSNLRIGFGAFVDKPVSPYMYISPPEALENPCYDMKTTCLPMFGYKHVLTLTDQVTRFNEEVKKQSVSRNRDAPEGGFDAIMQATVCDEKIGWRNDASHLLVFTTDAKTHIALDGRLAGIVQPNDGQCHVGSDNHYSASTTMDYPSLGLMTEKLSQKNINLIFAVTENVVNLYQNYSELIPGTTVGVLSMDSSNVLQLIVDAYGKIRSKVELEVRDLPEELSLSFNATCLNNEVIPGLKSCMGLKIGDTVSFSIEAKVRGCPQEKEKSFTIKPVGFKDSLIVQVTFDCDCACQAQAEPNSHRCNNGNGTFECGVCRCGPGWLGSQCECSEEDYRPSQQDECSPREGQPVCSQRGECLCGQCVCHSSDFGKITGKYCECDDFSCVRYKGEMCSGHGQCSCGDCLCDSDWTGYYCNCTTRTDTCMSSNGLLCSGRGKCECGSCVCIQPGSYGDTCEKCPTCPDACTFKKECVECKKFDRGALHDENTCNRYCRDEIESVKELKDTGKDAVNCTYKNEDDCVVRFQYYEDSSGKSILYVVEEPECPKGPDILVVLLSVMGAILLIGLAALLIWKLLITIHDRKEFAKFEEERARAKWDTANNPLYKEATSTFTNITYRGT
T1 sequence (P06756 31-889 limits assumed): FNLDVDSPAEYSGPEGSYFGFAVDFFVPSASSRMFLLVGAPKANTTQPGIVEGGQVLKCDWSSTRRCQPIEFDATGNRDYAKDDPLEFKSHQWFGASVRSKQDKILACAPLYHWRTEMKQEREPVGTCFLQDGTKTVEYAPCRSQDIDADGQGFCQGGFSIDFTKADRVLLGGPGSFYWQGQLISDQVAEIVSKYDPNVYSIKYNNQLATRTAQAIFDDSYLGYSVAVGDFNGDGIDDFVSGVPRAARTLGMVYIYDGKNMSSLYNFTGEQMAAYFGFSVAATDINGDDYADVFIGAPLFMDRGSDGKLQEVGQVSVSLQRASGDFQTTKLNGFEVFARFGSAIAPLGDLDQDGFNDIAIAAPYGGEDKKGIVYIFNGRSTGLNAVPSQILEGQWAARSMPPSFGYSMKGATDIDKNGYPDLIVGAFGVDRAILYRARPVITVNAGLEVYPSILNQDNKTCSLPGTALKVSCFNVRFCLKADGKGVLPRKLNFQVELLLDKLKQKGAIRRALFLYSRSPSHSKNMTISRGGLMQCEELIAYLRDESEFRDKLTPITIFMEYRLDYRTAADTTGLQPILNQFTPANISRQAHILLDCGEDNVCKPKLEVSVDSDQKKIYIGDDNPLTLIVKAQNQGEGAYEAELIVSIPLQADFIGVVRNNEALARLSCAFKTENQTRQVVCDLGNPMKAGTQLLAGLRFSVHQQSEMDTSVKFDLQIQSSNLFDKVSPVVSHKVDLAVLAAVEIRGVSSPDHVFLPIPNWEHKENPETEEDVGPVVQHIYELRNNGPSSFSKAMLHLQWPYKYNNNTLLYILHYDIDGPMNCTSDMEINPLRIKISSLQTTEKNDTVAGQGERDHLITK
T1 sequence (P06756 891-1048 partner limits assumed): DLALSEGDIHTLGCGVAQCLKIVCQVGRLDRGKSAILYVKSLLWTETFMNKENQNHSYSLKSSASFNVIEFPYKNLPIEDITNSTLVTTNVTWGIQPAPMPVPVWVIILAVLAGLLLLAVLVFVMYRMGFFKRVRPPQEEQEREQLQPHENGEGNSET
T1 sequence (P05106 27-788): as the sequence (P05106 27-788) above
T2 sequence (P06756 31-889 limits assumed): as the sequence (P06756 31-889 limits assumed) above
T2 sequence (P06756 891-1048 partner limits assumed): as the sequence (P06756 891-1048 partner limits assumed) above
T2 sequence (P05106 27-788): as the sequence (P05106 27-788) above

SMILES: CCn1c(=O)c(CC(=O)O)cc2ccc(OCCCN)cc21.O=C(O)C(F)(F)F
melting point: 182 to 184 °C

SMILES: N=C(N)NCCCCOc1ccc2c(c1)CC(CC(=O)O)C(=O)N2 (centres unmarked) (as salt: salt) [Example 229, [6-(4-Guanidino-butoxy)-2-oxo-1,2,3,4-tetrahydro-quinolin-3-yl]-acetic Acid]
melting point: 170 to 173 °C

SMILES: N=C(N)NCCCOc1ccc2cc(CC(=O)O)c(=O)[nH]c2c1.O=C(O)C(F)(F)F [Example 186, [7-(3-Guanidino-propoxy)-2-oxo-1,2-dihydro-quinolin-3-yl]-acetic Acid Trifluoroacetate]
remaining activity at 20 µM (αVβ3 integrin; [2]): 113%
remaining activity at 100 µM (αVβ3 integrin; [2]): 68.9%
melting point: 195 to 198 °C

SMILES: N=C(N)NCCCCCOc1cccc2c1NC(=O)C(CC(=O)O)C2 (centres unmarked) [Example 250, [8-(5-Guanidino-pentoxy)-2-oxo-1,2,3,4-tetrahydro-quinolin-3-yl]-acetic Acid]
remaining activity at 30 µM [1, 3]: 102%
inhibition at 215 µM (osteoclasts): -5%
remaining activity at 10 µM (αVβ3 integrin; @ 10 μM, % of maximal attachment, read-out: (αVβ3) CELL ATTACHMENT, % @ concentration): 90%
remaining activity at 100 µM (αVβ3 integrin; [2]): 89%
remaining activity at 200 µM (αIIbβ3 integrin): 69%

SMILES: COC(=O)CC1CCc2cc(OCCCNC3=NCCCN3)ccc2C1 (centres unmarked) [Example 215]
IC50 [1]: 2 µM
inhibition at 200 µM (osteoclasts; @ 200 μM): 90%
IC50 (αVβ3 integrin): 37.4 µM
IC50 (αIIbβ3 integrin): 151 µM

SMILES: N=C(N)NCCOc1ccc2cc(CCC(=O)O)c(=O)[nH]c2c1.O=[N+]([O-])O [Example 247, 3-[7-(2-Guanidino-ethoxy)-2-oxo-1,2-dihydro-quinolin-3-yl]-propionic Acid Nitric Acid Salt]
melting point: 211 °C (dec.)
remaining activity at 200 µM (αIIbβ3 integrin): 100%

SMILES: NCCCOc1ccc2cc(CC(=O)O)c(=O)n(Cc3ccccc3)c2c1 (as salt: salt) [Example 136, [1-Benzyl-7-(3-amino-propoxy)-2-oxo-1,2-dihydro-quinolin-3-yl]-acetic Acid]
melting point: 126 to 128 °C

SMILES: N=C(N)NCCCCOc1ccc2[nH]c(=O)c(CC(=O)O)cc2c1 [Example 238, [6-(4-Guanidino-butoxy)-2-oxo-1,2-dihydro-quinolin-3-yl]-acetic Acid Trifluoroacetic Acid Salt]
remaining activity at 30 µM [1, 3]: 100%
inhibition at 215 µM (osteoclasts): -20%
remaining activity at 20 µM (αVβ3 integrin; [2]): 102%
remaining activity at 100 µM (αVβ3 integrin; [2]): 97.9%
remaining activity at 200 µM (αIIbβ3 integrin): 94%

SMILES: N=C(N)NCCOc1ccc2c(c1)CCCC(CC(=O)O)C2 (centres unmarked) [Example 61, [2-(2-Guanidino-ethoxy)-6,7,8,9-tetrahydro-5H-benzocyclohepten-6-yl]-acetic Acid Hydrochloride]
IC50 [1]: 1.7 µM
inhibition at 271 µM (osteoclasts; @ 271 μM): 32%
IC50 (αVβ3 integrin): 62.2 µM
remaining activity at 200 µM (αIIbβ3 integrin): 85.3%

SMILES: N=C(N)NCCCCCOc1cccc2c1NC(=O)C(CC(=O)O)C2 (centres unmarked) (as salt: salt) [Example 250, [8-(5-Guanidino-pentoxy)-2-oxo-1,2,3,4-tetrahydro-quinolin-3-yl]-acetic Acid]
melting point: 126 to 131 °C

SMILES: N=C(N)NCCCCNC(=O)c1ccc2c(c1)NC(=O)C(CC(=O)O)C2 (centres unmarked) [Example 202, [7-(4-Guanidino-butylcarbamoyl)-2-oxo-1,2,3,4-tetrahydro-quinolin-3-yl]-acetic Acid Hydrochloride]
remaining activity at 30 µM [1, 3]: 50%
inhibition at 240 µM (osteoclasts; @ 240 μM): 37%
IC50 (αVβ3 integrin): 86 µM
IC50 (αIIbβ3 integrin): 87 µM

Continued, in another order:

melting point: 194 to 196 °C
SMILES: NCCCOc1ccc2c(c1)NC(=O)C(CC(=O)O)C2 (centres unmarked) (as salt: salt) [Example 205, [7-(3-Amino-propoxy)-2-oxo-1,2,3,4-tetrahydro-quinolin-3-yl]-acetic Acid]

melting point: 219 to 220 °C
SMILES: N=C(N)NCCOc1ccc2cc(CC(=O)O)c(=O)[nH]c2c1 (as salt: trifluoroacetate) [Example 185, [7-(2-Guanidino-ethoxy)-2-oxo-1,2-dihydro-quinolin-3-yl]-acetic Acid]

IC50 [1]: 5.8 µM
IC50 (αVβ3 integrin): 25.4 µM
remaining activity at 200 µM (αIIbβ3 integrin): 85%
SMILES: N=C(N)NCCCNC(=O)c1ccc2c(c1)NC(=O)C(CC(=O)O)C2 (centres unmarked) [Example 201, [7-(3-Guanidino-propylcarbamoyl)-2-oxo-1,2,3,4-tetrahydro-quinolin-3-yl]-acetic Acid Hydrochloride]
inhibition at 256 µM (osteoclasts; @ 256 μM): 45%

remaining activity at 100 µM ([1]; @ 100 μM, % Max = percentage of the specific binding, read-out: (αVβ3) RECEPTOR BINDING, % @ concentration): 31.4%
IC50 (αVβ3 integrin): 145 µM
remaining activity at 200 µM (αIIbβ3 integrin): 94%
SMILES: N=C(N)NCCNC(=O)c1ccc2c(c1)NC(=O)C(CC(=O)O)C2 (centres unmarked) [Example 200, [7-(2-Guanidino-ethylcarbamoyl)-2-oxo-1,2,3,4-tetrahydro-quinolin-3-yl]-acetic Acid Hydrochloride]
inhibition at 254 µM (osteoclasts; @ 254 μM): 20%

IC50 [1]: 15.7 µM
IC50 (αVβ3 integrin): 111 µM
remaining activity at 200 µM (αIIbβ3 integrin): 93.3%
SMILES: N=C(N)NCCOc1ccc2c(c1)NC(=O)C(CC(=O)O)C2 (centres unmarked) [Example 85, [7-(2-Guanidino-ethoxy)-2-oxo-1,2,3,4-tetrahydro-quinolin-3-yl]-acetic Acid Hydrochloride]
inhibition at 273 µM (osteoclasts; @ 273 μM): 33%

IC50 [1]: 8.9 µM
IC50 (αVβ3 integrin): 11.5 µM
IC50 (αIIbβ3 integrin): 107 µM
SMILES: N=C(N)NCCCC#Cc1ccc2c(c1)NC(=O)C(CC(=O)O)C2 (centres unmarked) [Example 101, [7-(5-Guanidino-pent-1-ynyl)-2-oxo-1,2,3,4-tetrahydro-quinolin-3-yl]-acetic Acid Trifluoroacetate]
inhibition at 221 µM (osteoclasts; @ 221 μM): 51%

melting point: 132 to 134 °C
remaining activity at 200 µM (αIIbβ3 integrin): 83.7%
SMILES: N=C(N)NCCCOc1ccc2cc(CC(=O)O)c(=O)n(Cc3ccccc3)c2c1 [Example 155, [1-Benzyl-7-(3-guanidino-propoxy)-2-oxo-1,2-dihydro-quinolin-3-yl]-acetic Acid]

melting point: 119 to 122 °C
SMILES: N=C(N)NCCOc1ccc2c(c1)CC(CCC(=O)O)C(=O)N2 (centres unmarked) (as salt: salt) [Example 222, 3-[6-(2-Guanidino-ethoxy)-2-oxo-1,2,3,4-tetrahydro-quinolin-3-yl]-propionic Acid]

melting point: 205 to 208 °C
SMILES: NCCOc1ccc2c(c1)NC(=O)C(CC(=O)O)C2 (centres unmarked) [Example 204, [7-(2-Amino-ethoxy)-2-oxo-1,2,3,4-tetrahydro-quinolin-3-yl]-acetic Acid]
